Results taken from PMC4945466 (Journal of medicinal chemistry, 2016).
Where two headings read alike, the source gives them in different places.

Tests used:
[1] = molecular target: recombinant HIV-1 IN (integrase strand transfer) (Human immunodeficiency virus type 1 group M subtype B, UniProt P04585); assay: INST biochemical assay
[2] = test system: HIV-1 IIIB in CEM-SS cells; assay: microbe, parasite or virus in culture; assay type: cell-based; details: for Antiviral Screening (10 μM) CPE reduction %: HIV-1 IIIB in CEM-SS cells, versus viral control
CEM-SS cells = assay: Cell viability / cytotoxicity in cytoprotection assay; assay type: cell-based
[3] = as above; assay type: cell-based; details: human
[4] = read-out: INST IC50, mean ± SD, at least three independent experiments

With `O=C(NCc1ccccc1)c1c(Nc2ccc(-c3ccccc3)cc2)[nH]c(=O)n(O)c1=O` [Compound 25, N-Benzyl-1-(hydroxy)-1,2,3,6-tetrahydro-2,6-dioxo-4-(biphenylamino)pyrimidine-5-carboxamide] the IC50 [1] was greater than 100 µM.
`CCNc1[nH]c(=O)n(O)c(=O)c1C(=O)NCCCl` [Compound 50, 1-(Hydroxy)-N-(2-chloroethyl)-4-(ethylamino)-1,2,3,6-tetrahydro-2,6-dioxopyrimidine-5-carboxamide] gave an IC50 [1] greater than 100 µM.
In the case of “1-(Hydroxy)-1,2,3,6-tetrahydro-2,6-dioxo-4-(phenylamino)pyrimidine-5-carboxamide [Compound 49]”, the IC50 [1, 4] is reported as greater than 100 µM.
For `CCNc1[nH]c(=O)n(O)c(=O)c1C(=O)NCc1ccc(F)c(F)c1` [Compound 42, N-(3,4-difluorobenzyl)-1-(hydroxy)-4-(ethylamino)-1,2,3,6-tetrahydro-2,6-dioxopyrimidine-5-carboxamide], the “Antiviral Screening (10 μM) CPE reduction %” value [2] was “inactive” and the “Antiviral Screening (10 μM) viability %” value (CEM-SS cells; 10 μM, CEM-SS cells, versus cell control) was “cytotoxic”.
For `CCNc1[nH]c(=O)n(O)c(=O)c1C(=O)NCc1ccc(Cl)c(F)c1` [Compound 44, N-(4-Chloro-3-fluorobenzyl)-1-(hydroxy)-4-(ethylamino)-1,2,3,6-tetrahydro-2,6-dioxopyrimidine-5-carboxamide], the “TI (therapeutic index, CC50/EC50)” value ([2]; cytoprotection assay, CEM-SS cells) was 100.
For `O=C(NCc1ccccc1)c1c(Nc2ccccc2)[nH]c(=O)n(O)c1=O` [Compound 24, N-Benzyl-1-(hydroxy)-1,2,3,6-tetrahydro-2,6-dioxo-4-(phenylamino)pyrimidine-5-carboxamide], the IC50 [1] was greater than 100 µM.
For `CCNc1c(C(=O)NCc2ccc(F)cc2)c(=O)n(O)c(=O)n1C` [Compound 52, N-(4-Fluorobenzyl)-3-(hydroxy)-6-(ethylamino)-1,2,3,4-tetrahydro-1-methyl-2,4-dioxopyrimidine-5-carboxamide], the IC50 [1] was greater than 100 µM.
For “3-(Benzyloxy)-6-(ethylamino)-N-(4-fluorobenzyl)-N-methyl-2,4-dioxo-1,2,3,4-tetrahydropyrimidine-5-carboxamide [Compound 53]”, the “Antiviral Screening (10 μM) CPE reduction %” value [2] was 0%, the “Antiviral Screening (10 μM) viability %” value (CEM-SS cells; 10 µM) was 89% and the IC50 [1, 4] was 7 ± 3.3 µM.
Work on `CCNc1[nH]c(=O)n(O)c(=O)c1C(=O)Oc1ccccc1` [Compound 51, Phenyl-1-(hydroxy)-4-(ethylamino)-1,2,3,6-tetrahydro-2,6-dioxopyrimidine-5-carboxylate] yielded an IC50 [1] greater than 100 µM.
Work on `O=C(NCc1ccccc1)c1c(O)n(O)c(=O)[nH]c1=O` [Compound 54, N-Benzyl-1,6-dihydroxy-2,4-dioxo-1,2,3,4-tetrahydropyrimidine-5-carboxamide] yielded an inhibition at 10 µM ([2]; Human immunodeficiency virus 1, IIIB, CEM-SS, 144 h, read-out: Antiviral Screening (10 μM) CPE reduction %) of 26% and a viability at 6 days, 10 µM [3] of 100%.
